Oligonucleotides are written 5' to 3', each unit as a sugar letter and its base; * is a phosphorothioate linkage, no mark a phosphodiester; rarer units and linkages stand in square brackets, end groups in braces. Plain capitals give the bases only. d = 2'-deoxy (DNA); {P} = phosphate
Columns and labels:
Jurkat cells = experiment: TUNEL assay in Jurkat cells; assay type: cell-based, human; conditions: 40 μM; 72 hours
Protocol: Cells were plated at a density of 180,000 cells/ml in RPMI 1640 medium supplemented with 3% FBS. Cells were treated with 40 μM of either of the oligonucleotides for 72 hours. Cells were then collected, washed and fixed for 30 minutes in 4% paraformaldehyde and then permeabilized with 0.1% Triton X-100 for 2 minutes. The TUNEL assay was carried out with components and instructions of the In Situ Cell Death Detection Kit using fluorescein-labeled dUTP from Boehringer Mannheim. TUNEL-positive cells were detected by FACS analysis and confocal microscopy. […] Uptake of the oligonucleotides was assessed in 5–10 μm sections with a Carl Zeiss LSM 510 confocal laser microscope. […] Fluorescence was measured on the FL-1 channel. […] Antibody Ab-6 (DO-1 clone, Oncogene Research Products, Cambridge, Mass.) detected p53; antibody KH95 (Santa Cruz Biotechnology, Inc., Santa Cruz, Calif.) detected E2F1; antibody Ab-4 (Oncogene Research products) detected p73. Phospho-p53 (serine 15) was detected using the #9284 polyclonal antibody and phospho-p95/Nbs1 (serine 343) was detected by a phospho-p95/Nbs1-specific polyclonal antibody, both antibodies from Cell Signaling Technology (Beverly, Mass.). p95/Nbs1 antibody (#NB-100-143, Novus Biologicals, Littleton, Colo.) and an actin antibody (I-19, Santa Cruz Biotechnology, Santa Cruz, Calif.) were also used. […]

LacZ reporter plasmid = experiment: UV-induced mutation frequency in LacZ transgenic mice; assay type: in vivo
From the text: Transgenic mice carrying multiple genomic copies of a LacZ reporter plasmid were used. One hundred μM pTpT in polypropyleneglycol was applied to one ear and vehicle alone to the other ear, daily for four days. On the fifth day, both ears were exposed to 100 mJ/cm^2 UVB light. This procedure was repeated weekly for 3, 5 or 7 weeks (3 mice/group). One week after the final irradiation, LacZ plasmids were harvested from the ear epidermis. Using methods well known in the art, the plasmids were recovered from genomic DNA by restriction enzyme digestion and specific binding to the LacI protein. Mutant LacZ plasmids were positively selected by transfection into bacteria and growth on selective medium and the mutation frequency was determined.

p53 = p53 (Homo sapiens, UniProt P04637); experiment: p53 assay using hGH reporter plasmid in p53-transfected H1299 cells; assay type: cell-based; parameters: expressed in transfected cells; host or cells: H1299 lung carcinoma cells (p53-null); vector from Dr. Bert Vogelstein; conditions: 100 μM; 24 hours
Protocol: H1299 cells were similarly transfected with p53 expression vector or control vector. Two days after the transfection these cells were cotransfected with pPG-GH and PSV-β-galactosidase control vector, and treated with 100 μM pTpT. Twenty-four hours later, 250 μl of the medium and the cell lysate were harvested and processed as described above.

[1] = test system: squamous carcinoma line SCC12F; experiment: Cell yields of UVA-irradiated SCC12F cells after pretreatment; assay type: cell-based, human; conditions: 100 μM 3 days pretreatment; 10 J/cm^2 UVA
Protocol: Cells from the well differentiated squamous carcinoma line SCC12F (gift of Dr. James Rheinwald, Harvard University) were treated with 100 μM pTpT or diluent as control for 3 days. Then cells were re-plated in medium lacking pTpT and were sham- or UV-irradiated with 10 J/cm^2 UVA (Sellas Sunlight UVA lamp). Cell yields were determined at different intervals after UV irradiation.

[2] = test system: Normal human neonatal keratinocyte cells; experiment: Cell yield of normal keratinocytes; assay type: cell-based; conditions: 100 μM
Protocol: Normal human neonatal keratinocyte cells were cultured as described above in Example 1 for SCC12F cells, and treated with either 100 μM T2 or diluent as a control. Cells were harvested for cell counts. The cell yield in cultures treated with T2 was reduced by 63% compared to that of paired control cultures after three days (FIG. 5).

TNF-α gene = experiment: TNFα promoter CAT reporter transgene in skin; assay type: in vivo, mice; conditions: intracutaneous pTpT 100 μM; LPS 1 μg/ml
Protocol: In another experiment, TNF-α gene activation was measured by utilizing mice carrying a CAT reporter transgene bearing the entire TNFα promoter and 3′-untranslated region. Transgenic mice were subjected to the following treatment prior to skin assay for CAT expression: UVB irradiation (200–700 J/m^2), intracutaneous injection of pTpT (100 μM); lipopolysaccharide (LPS 1 μg/ml) as positive control, or vehicle alone.

Sequence of p53 (P04637 whole entry): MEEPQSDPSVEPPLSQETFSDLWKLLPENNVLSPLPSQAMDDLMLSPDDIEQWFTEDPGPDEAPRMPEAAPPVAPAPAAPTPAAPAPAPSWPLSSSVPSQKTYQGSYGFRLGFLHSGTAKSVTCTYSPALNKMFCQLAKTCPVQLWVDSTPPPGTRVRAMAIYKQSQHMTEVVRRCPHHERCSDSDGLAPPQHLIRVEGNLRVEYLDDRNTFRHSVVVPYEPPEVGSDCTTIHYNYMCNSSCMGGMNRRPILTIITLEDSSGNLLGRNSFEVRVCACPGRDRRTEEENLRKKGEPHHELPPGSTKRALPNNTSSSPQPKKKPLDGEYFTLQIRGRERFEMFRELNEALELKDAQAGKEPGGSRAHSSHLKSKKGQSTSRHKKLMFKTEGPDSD

## pGTTAGGGTTAG (DNA {P}-dGdTdTdAdGdGdGdTdTdAdG) [SEQ ID NO: 5]
Jurkat cells
  TUNEL fluorescence (FACS, confocal microscopy): an increase in fluorescence due to end-label incorporation

## thymidine dinucleotide [pTpT]
LacZ reporter plasmid; 100 μM topical, weekly UVB, after 3 weeks (diluent 293)
  mutation frequency: 200
LacZ reporter plasmid; after 3, 5, and 7 weeks
  lower mutation frequency than diluent treated skin: 20–30%
LacZ reporter plasmid; after 5 weeks (diluent 216)
  mutation frequency: 155
LacZ reporter plasmid; after 7 weeks (diluent 322)
  mutation frequency: 261
p53
  increase in hGH secretion compared to diluent-treated cells: 40%
[1]
  yields of UVA irradiated cells: increased the yields of UVA irradiated cells
[2]; after three days
  cell yield reduced compared to paired control cultures: 63%
[2]; three days (control: one population doubling)
  number of cells: remained the same
TNF-α gene
  CAT activity in skin: CAT activity was detected
